Laboratory results from patent US11390604B2 (Hoffmann-La Roche Inc., priority 2019, dated 2022).
Counter-ions that a name gives are not always drawn.

Test system: Acinetobacter baumannii ATCC 17961
Experiment: Antimicrobial susceptibility testing: 90% growth inhibitory concentration (IC90) determination
Assay type: cell-based
Conditions: ATCC17961, Acinetobacter baumannii ATCC 17961, Iso-Sensitest broth, read-out: ATCC 17961 IC90
How it was run: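 Growth was followed kinetically by OD600 at 20-min intervals for 16 h at 35±2 °C, with ~5×10^5 CFU/ml in Iso-Sensitest broth. Compounds were tested as twofold dilutions (e.g. 50–0.097 μM final). The concentration giving 90% inhibition of log-phase growth was reported.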

| IC90 [nM] | SMILES |
| --- | --- |
| 274 | Cn1c(-c2cn(CC3CC3)nc2C(F)(F)F)cnc1C(=O)Nc1ccc(C(=O)N2CCN(C(=O)C3CCNCC3)CC2)c(Cl)c1 [Example 112, N-[3-chloro-4-[4-(piperidine-4-carbonyl)piperazine-1-carbonyl]phenyl]-5-[1-(cyclopropylmethyl)-3-(trifluoromethyl)pyrazol-4-yl]-1-methylimidazole-2-carboxamide;hydrochloride] |
| 339 | CCn1cc(-c2cnc(C(=O)Nc3ccc(C(=O)N4CCN(C(=O)C5CCNCC5)CC4)c(Cl)c3)n2C)c(C(F)(F)F)n1 [Example 114, N-[3-chloro-4-[4-(piperidine-4-carbonyl)piperazine-1-carbonyl]phenyl]-5-[1-ethyl-3-(trifluoromethyl)pyrazol-4-yl]-1-methylimidazole-2-carboxamide;hydrochloride] |
| 1250 | Cn1cc(-c2cnc(C(=O)Nc3ccc(C(=O)N4CCN(C(=O)C5CCNCC5)CC4)c(Cl)c3)n2C)c(C(F)(F)F)n1 [Example 115, N-[3-chloro-4-[4-(piperidine-4-carbonyl)piperazine-1-carbonyl]phenyl]-1-methyl-5-[1-methyl-3-(trifluoromethyl)pyrazol-4-yl]imidazole-2-carboxamide;hydrochloride] |
| 427 | CC(C#N)n1cc(-c2cnc(C(=O)Nc3ccc(C(=O)N4CCN(C(=O)C5CCNCC5)CC4)c(Cl)c3)n2C)c(C(F)(F)F)n1 (centres unmarked) [Example 117, N-[3-chloro-4-[4-(piperidine-4-carbonyl)piperazine-1-carbonyl]phenyl]-5-[1-(1-cyanoethyl)-3-(trifluoromethyl)pyrazol-4-yl]-1-methylimidazole-2-carboxamide;formic acid] |
| 681 | CCc1cc(NC(=O)c2ncc(-c3cn(CC#N)nc3C(F)(F)F)n2C)ccc1C(=O)N1CCN(C(=O)C2CCN(C)CC2)CC1 [Example 127, 5-[1-(cyanomethyl)-3-(trifluoromethyl)pyrazol-4-yl]-N-[3-ethyl-4-[4-(1-methylpiperidine-4-carbonyl)piperazine-1-carbonyl]phenyl]-1-methylimidazole-2-carboxamide;formic acid] |
| 1040 | CCc1cc(NC(=O)c2ncc(-c3cn(CC#N)nc3C(F)(F)F)n2C)ccc1C(=O)N1CCN(C(=O)C2CCNCC2)CC1 [Example 128, 5-[1-(cyanomethyl)-3-(trifluoromethyl)pyrazol-4-yl]-N-[3-ethyl-4-[4-(piperidine-4-carbonyl)piperazine-1-carbonyl]phenyl]-1-methylimidazole-2-carboxamide;formic acid] |
| 949 | CCc1cc(NC(=O)c2ncc(-c3cn(CC#N)nc3C(F)(F)F)n2C)ccc1C(=O)N1CCN(C(=O)C2(O)CCNCC2)CC1 [Example 129, 5-[1-(cyanomethyl)-3-(trifluoromethyl)pyrazol-4-yl]-N-[3-ethyl-4-[4-(4-hydroxypiperidine-4-carbonyl)piperazine-1-carbonyl]phenyl]-1-methylimidazole-2-carboxamide;formic acid] |
| 947 | CCc1cc(NC(=O)c2ncc(-c3cn(CC#N)nc3C(F)(F)F)n2C)ccc1C(=O)N1CCN(C(=O)[C@@H]2CCNC2)CC1 [Example 130, 5-[1-(cyanomethyl)-3-(trifluoromethyl)pyrazol-4-yl] N-[3-ethyl-4-[4-[(3R)-pyrrolidine-3-carbonyl]piperazine-1-carbonyl]phenyl]-1-methylimidazole-2-carboxamide;formic acid] |
| 1700 | CCc1cc(NC(=O)c2ncc(-c3cn(CC#N)nc3C(F)(F)F)n2C)ccc1C(=O)N1CCN(C(=O)C2CNC2)CC1 [Example 131, N-[4-[4-(azetidine-3-carbonyl)piperazine-1-carbonyl]-3-ethylphenyl]-5-[1-(cyanomethyl)-3-(trifluoromethyl)pyrazol-4-yl]-1-methylimidazole-2-carboxamide;formic acid] |

The remaining lines, values behind:

| SMILES | IC90 [nM] |
| --- | --- |
| Cn1c(-c2cn(C3CC4(CC4)C3)nc2C(F)(F)F)cnc1C(=O)Nc1ccc(C(=O)N2CCN(C(=O)C3CCNCC3)CC2)c(Cl)c1 [Example 108, N-[3-chloro-4-[4-(piperidine-4-carbonyl)piperazine-1-carbonyl]phenyl]-1-methyl-5-[1-spiro[2.3]hexan-5-yl-3-(trifluoromethyl)pyrazol-4-yl]imidazole-2-carboxamide;hydrochloride] | 248 |
| Cn1c(-c2cn(CCOC(F)F)nc2C(F)(F)F)cnc1C(=O)Nc1ccc(C(=O)N2CCN(C(=O)C3CCNCC3)CC2)c(Cl)c1 [Example 109, N-[3-chloro-4-[4-(piperidine-4-carbonyl)piperazine-1-carbonyl]phenyl]-5-[1-[2-(difluoromethoxy)ethyl]-3-(trifluoromethyl)pyrazol-4-yl]-1-methylimidazole-2-carboxamide;hydrochloride] | 473 |
| Cn1c(-c2cn(CC3CC3(F)F)nc2C(F)(F)F)cnc1C(=O)Nc1ccc(C(=O)N2CCN(C(=O)C3CCNCC3)CC2)c(Cl)c1 (centres unmarked) [Example 110, N-[3-chloro-4-[4-(piperidine-4-carbonyl)piperazine-1-carbonyl]phenyl]-5-[1-[(2,2-difluorocyclopropyl)methyl]-3-(trifluoromethyl)pyrazol-4-yl]-1-methylimidazole-2-carboxamide;hydrochloride] | 260 |
| Cn1c(-c2cn(CC3CC(F)(F)C3)nc2C(F)(F)F)cnc1C(=O)Nc1ccc(C(=O)N2CCN(C(=O)C3CCNCC3)CC2)c(Cl)c1 [Example 111, N-[3-chloro-4-[4-(piperidine-4-carbonyl)piperazine-1-carbonyl]phenyl]-5-[1-[(3,3-difluorocyclobutyl)methyl]-3-(trifluoromethyl)pyrazol-4-yl]-1-methylimidazole-2-carboxamide;hydrochloride] | 344 |
| Cn1c(-c2cn(CC3CCC3)nc2C(F)(F)F)cnc1C(=O)Nc1ccc(C(=O)N2CCN(C(=O)C3CCNCC3)CC2)c(Cl)c1 [Example 113, N-[3-chloro-4-[4-(piperidine-4-carbonyl)piperazine-1-carbonyl]phenyl]-5-[1-(cyclobutylmethyl)-3-(trifluoromethyl)pyrazol-4-yl]-1-methylimidazole-2-carboxamide;hydrochloride] | 187 |
| Cn1c(-c2cn(C(F)F)nc2C(F)(F)F)cnc1C(=O)Nc1ccc(C(=O)N2CCN(C(=O)C3CCNCC3)CC2)c(Cl)c1 [Example 116, N-[3-chloro-4-[4-(piperidine-4-carbonyl)piperazine-1-carbonyl]phenyl]-5-[1-(difluoromethyl)-3-(trifluoromethyl)pyrazol-4-yl]-1-methylimidazole-2-carboxamide;hydrochloride] | 487 |
| Cc1cc(NC(=O)c2ncc(-c3cn(CC#N)nc3C(F)(F)F)n2C)cc(F)c1C(=O)N1CCN(C(=O)[C@H]2C[C@H](N)C2)CC1 [Example 118, N-[4-[4-(3-aminocyclobutanecarbonyl)piperazine-1-carbonyl]-3-fluoro-5-methylphenyl]-5-[1-(cyanomethyl)-3-(trifluoromethyl)pyrazol-4-yl]-1-methylimidazole-2-carboxamide] | 884 |
| Cc1cc(NC(=O)c2ncc(-c3cn(CC#N)nc3C(F)(F)F)n2C)cc(F)c1C(=O)N1CCN(C(=O)[C@H]2CC[C@@H](N)C2)CC1 [Example 119, N-[4-[4-[(1S,3R)-3-aminocyclopentanecarbonyl]piperazine-1-carbonyl]-3-fluoro-5-methylphenyl]-5-[1-(cyanomethyl)-3-(trifluoromethyl)pyrazol-4-yl]-1-methylimidazole-2-carboxamide] | 769 |
| Cc1cc(NC(=O)c2ncc(-c3cn(CC#N)nc3C(F)(F)F)n2C)cc(F)c1C(=O)N1CCN(C(=O)C2(O)CCCNC2)CC1 (centres unmarked) [Example 120, 5-[1-(cyanomethyl)-3-(trifluoromethyl)pyrazol-4-yl]-N-[3-fluoro-4-[4-(3-hydroxypiperidine-3-carbonyl)piperazine-1-carbonyl]-5-methylphenyl]-1-methylimidazole-2-carboxamide] | 2250 |
| Cc1cc(NC(=O)c2ncc(-c3cn(CC#N)nc3C(F)(F)F)n2C)cc(F)c1C(=O)N1CCN(C(=O)[C@H](C)N)CC1 [Example 121, N-[4-[4-[(2S)-2-aminopropanoyl]piperazine-1-carbonyl]-3-fluoro-5-methylphenyl]-5-[1-(cyanomethyl)-3-(trifluoromethyl)pyrazol-4-yl]-1-methylimidazole-2-carboxamide] | 970 |
| Cc1cc(NC(=O)c2ncc(-c3cn(CC#N)nc3C(F)(F)F)n2C)cc(F)c1C(=O)N1CCN(C(=O)[C@H]2CCNC2)CC1 [Example 122, 5-[1-(cyanomethyl)-3-(trifluoromethyl)pyrazol-4-yl]-N-[3-fluoro-5-methyl-4-[4-[(3S)-pyrrolidine-3-carbonyl]piperazine-1-carbonyl]phenyl]-1-methylimidazole-2-carboxamide] | 978 |
| Cc1nc(Cn2cc(-c3cnc(C(=O)Nc4ccc(C(=O)NC5CC(N)C5)c(Cl)c4)n3C)c(C(F)(F)F)n2)cs1 (centres unmarked) [Example 124, N-[4-[(3-aminocyclobutyl)carbamoyl]-3-chlorophenyl]-1-methyl-5-[1-[(2-methyl-1,3-thiazol-4-yl)methyl]-3-(trifluoromethyl)pyrazol-4-yl]imidazole-2-carboxamide;hydrochloride] | 1800 |
| Cn1c(-c2cn(C3CCC3)nc2C(F)(F)F)cnc1C(=O)Nc1ccc(C(=O)NC2CC(N)C2)c(Cl)c1 (centres unmarked) [Example 125, N-[4-[(3-aminocyclobutyl)carbamoyl]-3-chlorophenyl]-5-[1-cyclobutyl-3-(trifluoromethyl)pyrazol-4-yl]-1-methylimidazole-2-carboxamide;hydrochloride] | 480 |

Same assay, conditions: Acinetobacter baumannii ATCC 17961, Iso-Sensitest broth, read-out: ATCC 17961 IC90

| SMILES | IC90 [nM] |
| --- | --- |
| C=CCn1cc(-c2cnc(C(=O)Nc3ccc(C(=O)NC4CC(N)C4)c(Cl)c3)n2C)c(C(F)(F)F)n1 (centres unmarked) [Example 126, N-[4-[(3-aminocyclobutyl)carbamoyl]-3-chlorophenyl]-1-methyl-5-[1-prop-2-enyl-3-(trifluoromethyl)pyrazol-4-yl]imidazole-2-carboxamide;2,2,2-trifluoroacetic acid] | 293 |
